Results as given in the NIST ThermoML archive (doi:10.1021/je8003707).
± gives the expanded uncertainty stated by the source.

Conditions: 101 kPa, Liquid; for viscosity: Capillary tube (Ostwald / Ubbelohde) method; for mass density: Pycnometric method

| viscosity (288.15 K) [mPa·s] | mass density (288.15 K) [kg/m3] | viscosity (293.15 K) [mPa·s] | mass density (293.15 K) [kg/m3] | viscosity (298.15 K) [mPa·s] | mass density (298.15 K) [kg/m3] | viscosity (303.15 K) [mPa·s] | mass density (303.15 K) [kg/m3] | viscosity (308.15 K) [mPa·s] | mass density (308.15 K) [kg/m3] | SMILES |
| --- | --- | --- | --- | --- | --- | --- | --- | --- | --- | --- |
| 1.077 ± 0.011 | 783.3 ± 0.3 | 0.984 ± 0.01 | 778.6 ± 0.3 | 0.903 ± 0.01 | 773.9 ± 0.3 | 0.83 ± 0.009 | 769.2 ± 0.3 | 0.764 ± 0.009 | 764.5 ± 0.4 | C1CCCCC1 [cyclohexane] |
| 0.441 ± 0.007 | 688.1 ± 0.3 | 0.417 ± 0.007 | 683.8 ± 0.3 | 0.396 ± 0.007 | 679.7 ± 0.3 | 0.375 ± 0.007 | 675.4 ± 0.3 | 0.356 ± 0.007 | 671.1 ± 0.3 | CCCCCCC [heptane] |
